Data published in patent US7582677B2, “Lignan formulations” (Hormos Medical Corp., priority 2002, dated 2009).
pIC50: −log10 of the molar value.

system: microsomal lipids; test: Inhibition of lipid peroxidation (microsomal lipids, tert-butylhydroperoxide initiated, chemiluminescence detection); assay type: biochemical; conditions: peroxidation of microsomal lipids initiated by tert-butylhydroperoxide
Text: In this model, lignan compounds were compared to the well known, potent antioxidant Trolox, which is a water-soluble derivative of vitamin E.

Compound | pIC50
COc1cc(C[C@H]2CO[C@H](c3ccc(O)c(OC)c3)[C@H]2CO)ccc1O [Lariciresinol] | 7.15
HMR-butyrate | 7.00
COc1cc(C[C@H]2C(=O)OC[C@@H]2[C@H](O)c2ccc(O)c(OC)c2)ccc1O [Hydroxymatairesinol (HMR), Hydroxymatairesinol] | 7.22
HMR-benzoate | 6.92
CCCC(=O)Oc1ccc(C[C@H]2COC(=O)[C@@H]2Cc2ccc(OC(=O)CCC)c(OC)c2)cc1OC [Matairesinoibutyrate] | 6.46

Second part, the compound after the results:

pIC50 | Compound
6.82 | COc1cc(CC2COC(=O)C2(O)Cc2ccc(O)c(OC)c2)ccc1O (centres unmarked) [Nortrachelogenin]
6.66 | Cc1c(C)c2c(c(C)c1O)CCC(C)(C(=O)O)O2 (centres unmarked) [Trolox, reference compound]
7.17 | α-Conidendrin
7.05 | COc1cc(C[C@@H](CO)[C@H](CO)Cc2ccc(O)c(OC)c2)ccc1O [Secoisolariciresinol]
6.96 | COc1cc(CC2C(=O)OCC2C(=O)c2ccc(O)c(OC)c2)ccc1O (centres unmarked) [Oxomatairesinol]
7.27 | COc1cc(C[C@H]2COC(=O)[C@@H]2Cc2ccc(O)c(OC)c2)ccc1O [Matairesinol]
